Data taken from patent US8637455B2, “Compositions and methods for delivery of glycopeptide antibiotics to medical device surfaces” (Affinergy, LLC, priority 2007, dated 2014).
*1 amine or outer side, *2 acyl side, *3 side chain or, on linkers, in order; H or OH if unused. Bridges are numbered along the chain shown (N, C = ends). Where no end group is shown, it is not given here. [ ]: non-standard residue; d: D form. The star is where a group is joined. (miniPEG)2 = linker of two mini-PEG units, (HN—CH2—CH2—O—CH2—CH2—O—CH2—C═O)2, O=C(COCCOCCN[*:1])NCCOCCOCC(=O)[*:2]; Myristoyl = CCCCCCCCCCCCCC(=O)*; Aun = NCCCCCCCCCCC(=O)O; AEEA = NCCOCCOCC(=O)O; Ahx = NCCCCCC(=O)O

Experiments:
[1] = Binding of alkaline-phosphatase linked peptides to immobilized biotinylated vancomycin; conditions: absorbance at 405 nm
Description: From the peptide amino acid sequence […] (SEQ ID NO: 1) additional peptides were designed and expressed in the bacterial expression system described herein to further evaluate structure-function relationships. A truncated peptide comprising the amino acid sequence of SEQ ID NO:9 (STCLIDMYGVCH) was expressed and compared to a peptide comprising SEQ ID NO:1 for binding affinity for glycopeptide antibiotic. Also produced were a dimer of this truncated peptide (SEQ ID NO:10; […]), a D to A substitution (SEQ ID NO:11; STCLIAMYGVCH), a D to E substitution (SEQ ID NO:12; STCLIEMYGVCH), and a G to S substitution (SEQ ID NO:13; STCLIDMYSVCH). Relative binding strengths of these peptides and of other representative peptides to glycopeptide antibiotic were determined by EC50 values for binding to vancomycin or other glycopeptide antibiotic.
A typical binding assay for glycopeptide antibiotic was performed according to the following procedure. The concentrations of the alkaline-phosphatase linked variant peptides were normalized to equal levels based on the alkaline-phosphatase activity as determined in a kinetic assay with the alkaline-phosphatase specific chromogenic substrate p-nitrophenyl phosphate (p-NPP). A streptavidin coated microtiter plate was coated with biotinylated vancomycin. Serial dilutions of normalized alkaline-phosphatase linked peptides were allowed to bind to the immobilized vancomycin and detected by addition of the alkaline-phosphatase specific chromogenic substrate p-NPP. Relative affinity for peptide binding to the immobilized vancomycin was determined by measuring the absorbance at 405 nm of the colored product of the alkaline phosphatase reaction. […] EC50 values for the synthetic peptides binding to vancomycin were determined as described in Example 1 and are shown in Table 3. Preferred are peptides that bind to glycopeptide antibiotic with binding affinity of EC50 of less than or equal to about 1 μM, and more preferably, in the nanomolar range (e.g., <0.1 μM).

[2] = system: Staphylococcus aureus strain MZ100; experiment: In vitro infection assay on titanium beads, colony counts; format: cell-based; conditions: peptide 5 μM + vancomycin 100 μM
Protocol: To illustrate the antibacterial activity of the peptide compositions, an in vitro infection assay was performed. Briefly, a surface material was contacted with one of the peptide compositions such that the peptide binds to the surface material. The peptide composition can have glycopeptide antibiotic already bound thereto at the time of contacting the peptide with the surface material, or the glycopeptide antibiotic can be contacted with the peptide in a step subsequent to binding the peptide composition to the surface material. The surface material was washed to remove unbound glycopeptide antibiotic, and then contacted with bacterial cells (added from a culture in log phase growth) and incubated to promote bacterial growth. The surface material was washed, and any bacterial cells colonizing the surface material removed and plated to assess bacterial growth.
In one example, Staphylococcus aureus strain MZ100 was used as the representative bacterial cells. First, as a representative surface material, titanium beads were sterilized in acetone in a sonication bath, and then air dried in a sterile hood. The beads were individually placed in sterilized microfuge tubes (one bead per tube). […] The next day, the plates were examined for bacterial growth, and the number of bacterial colonies was quantified per plate.

S. aureus = experiment: Bacterial growth with loaded titanium beads, optical density at 600 nm; format: cell-based; conditions: peptide 10 μM + vancomycin 200 μM, 37° C. for 18 hours
Protocol: In another experiment, antimicrobial activity of the peptide compositions was measured as follows. Titanium beads were placed into wells of a 96 well plate. To each well was added a 10 μM of peptide composition comprising at least one surface-binding peptide coupled to at least one glycopeptide antibiotic binding peptide and vancomycin at 200 μM. The appropriate negative controls were also included. The plate was incubated for 1 hour at 20° C., and then the wells and beads were washed 4 times with buffer. After washing, the beads were transferred to the well of a plate containing S. aureus in log phase growth and incubated at 37° C. for 18 hours. Bacterial growth was assessed by reading optical density at 600 nm.

[3] = Vancomycin loading on titanium surface by peptide compositions (HPLC assay); format: binding; conditions: peptide at 10 μM; vancomycin 200 μM; titanium beads; 30 minutes, 4 washes
Protocol: In one experiment, titanium beads were placed into wells of a 96 well plate. To each well was added a range of concentrations (1-50 μM) of peptide composition comprising at least one surface-binding peptide coupled to at least one glycopeptide antibiotic binding peptide and vancomycin at 200 μM. The appropriate negative controls were also included. The plate was incubated for 30 minutes, and then the wells and beads were washed 4 times with buffer. After washing, 10 mM HCl was added to each well to elute remaining vancomycin from the metal bead. Bound vancomycin was measured by HPLC assay at detection wavelength 214 nm. […] In addition, binding assays performed using stainless steel rather than titanium beads as a representative surface material yielded similar results.

S. aureus MZ100 = experiment: In vitro infection model on titanium pins, colony counts; format: cell-based; conditions: composition 5 μM + vancomycin 100 μM, two hours with S. aureus MZ100
Protocol: Acetone-sterilized titanium pins (1 mm diameter, 12 mm long) were first washed in PBS. These pins were then incubated in a solution (PBS) containing the respective composition (5 μM)+vancomycin (100 μM) for 15 minutes at room temperature, with intermittent inversion for coating. Each pin was then washed extensively in PBS and placed in 30 μL of S. aureus MZ100 cultured at 10^6 colony forming units (cfu) per mL, according to methods above. The coated pins were then inoculated in 30 mm lengths of 1.5 mm diameter silicone tubing, with closed ends. After incubation for two hours with shaking, the pin was placed in a new tube containing 1 mL PBS. After inverting several times, PBS was aspirated, and replaced with a fresh 1 mL of PBS. The pins were then sonicated at 20 kHz for four cycles of 15 seconds each. Supernatants (100 μL) and dilutions were plated on trypticase soy agar (TSA) plates, incubated for 24 hours at 37° C., and colonies were counted. An assay control included the same steps of the infection model, except that the pin is uncoated pin (i.e., without composition according to the presently disclosed subject matter bound thereto) (“Control”). As representative examples, compositions comprising the amino acid sequences of SEQ ID NOs: 125 and 126 were tested for antimicrobial activity using the in vitro infection model (see, Table 7, “A” & “B”, respectively).

[4] = Binding assay of peptide for gentamycin; conditions: gentamycin (an aminoglycoside antibiotic); similar assay format as for vancomycin
Protocol: Using a similar binding assay format as described herein for vancomycin, the ability of a peptide comprising the amino acid sequence of SEQ ID NO: 1 to bind gentamycin (an aminoglycoside antibiotic) was determined.

[5] = system: binding between vancomycin and a peptide comprising the amino acid sequence of SEQ ID NO:1; experiment: Inhibition by Lys-D-Ala-D-Ala of specific binding between vancomycin and peptide SEQ ID NO:1
Protocol: As an example, illustrated is the inhibition by Lys-D-Ala-D-Ala of specific binding between vancomycin and a peptide comprising the amino acid sequence of SEQ ID NO:1. To the wells of a 96 well plate coated with streptavidin was added 100 μl of a 0.2 μM solution of biotinylated peptide in buffer-T. After incubation, the wells were blocked by adding 200 μl of a 0.5 mM solution of biotin in buffer-T. The plates were then washed three times with buffer-T. Serial dilutions of Lys-D-Ala-D-Ala were prepared, and added individually to the wells such that Lys-D-Ala-D-Ala ranged in a final concentration of from about 1 μM to about 200 μM (in a volume of 35 μl). Also added to each well was 35 μl of biotinylated vancomycin (20 nM final concentration), and the plate was incubated at 30 minutes for room temperature. The wells were then washed three times with buffer-T, followed by the addition of 100 μl of streptavidin-alkaline phosphatase conjugate (1 mg/ml diluted 1:500 in buffer-T). Following a 30 minute incubation, the wells were washed five times with buffer-T. Added to each well was 100 μl of pNPP, followed by colorimetric detection after 12 minutes at an absorbance of 405 nm.

11 (STCLIAMYGVCH) [compound 11]
glycopeptide antibiotic binding [1]: no detectable glycopeptide antibiotic binding

12 (STCLIEMYGVCH) [compound 12]
glycopeptide antibiotic binding [1]: no detectable glycopeptide antibiotic binding

13 (STCLIDMYSVCH) [compound 13]
glycopeptide antibiotic binding [1]: no detectable glycopeptide antibiotic binding

119 (NHTISKNHKKKNKNSNKTR) [compound 119]
bacterial growth on the plates [2]: completely inhibited

130 (SSCLIDIYGVCHNFDAY[AEEA][AEEA]HKKNNPKKKNKTRGSSK; disulfide 3-11 (inferred)) [compound 130]
inhibition of bacterial growth (S. aureus): complete inhibition | Picomoles vancomycin/cm^2 [3]: 83 Picomoles vancomycin/cm^2

131 (SSCLIDIYGVCHNFDAY[AEEA][AEEA]SSHRTNHKKNNPKKKNKTRGSSGK; disulfide 3-11 (inferred)) [compound 131]
inhibition of bacterial growth (S. aureus): complete inhibition | Picomoles vancomycin/cm^2 [3]: 76 Picomoles vancomycin/cm^2

AUD-AUD-AUD-SSCLIDIYGVCHNFDAY-(miniPEG)2-HKKNNPKKKNKTRGSSK ([Aun][Aun][Aun]SSCLIDIYGVCHNFDAY[(miniPEG)2]HKKNNPKKKNKTRGSSK; disulfide 6-14 (inferred)) [SEQ ID NO: 126]
# of bacterial colonies (CFU) (S. aureus MZ100): <10 CFU

CLIDMYGVCHNFDGAYDS [compound 1]
binding affinity for gentamycin [4]: lacked significant binding affinity

Lys-D-Ala-D-Ala
inhibition of binding between vancomycin and peptide ([5]; Lys-D-Ala-D-Ala between 100 μM to 200 μM): ~100% | IC50 ([5]; biotinylated vancomycin 20 nM, immobilized peptide SEQ ID NO:1, read-out: concentration of Lys-D-Ala-D-Ala needed to inhibit about 50% of the binding between vancomycin and peptide): ~10 µM

Myr-Ahx-SSCLIDIYGVCHNFDAY-(miniPEG)2-HKKNNPKKKNKTRGSSK ({Myristoyl-Ahx}-SSCLIDIYGVCHNFDAY[(miniPEG)2]HKKNNPKKKNKTRGSSK; disulfide 3-11 (inferred)) [SEQ ID NO: 125]
# of bacterial colonies (CFU) (S. aureus MZ100): 100 CFU

NHTISKNHKKKNKNSNKTR [SEQ ID NO: 119]
# of bacterial colonies ([2]; 2 hour incubation with MZ100): 0

STCLIDMYGVCH [compound 9]
glycopeptide antibiotic binding [1]: displayed glycopeptide antibiotic binding

STCLIDMYGVCHSSCLIDMYGVCH [compound 10]
glycopeptide antibiotic binding [1]: displayed glycopeptide antibiotic binding
